Results: paper PMC3510655 (Chemical science (Royal Society of Chemistry : 2010), 2013)

Target: T1, quinone reductase 2 (QR2) (Homo sapiens, UniProt P16083)
T1 sequence (P16083 1-231): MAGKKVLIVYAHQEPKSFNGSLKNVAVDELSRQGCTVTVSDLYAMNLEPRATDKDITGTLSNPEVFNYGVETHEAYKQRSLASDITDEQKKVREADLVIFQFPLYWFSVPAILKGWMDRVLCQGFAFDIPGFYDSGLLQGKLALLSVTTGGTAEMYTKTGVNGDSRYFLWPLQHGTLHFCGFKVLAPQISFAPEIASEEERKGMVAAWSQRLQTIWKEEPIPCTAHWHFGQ
Experiment: QR2 inhibition assay using human recombinant protein
Type: biochemical
Settings: authors' assay system

Substance | IC50 against QR2
Ammosamide H [compound 10] | irreproducible results
Ammosamide E [compound 1] | nearly equipotent to 4
